# Laboratory results published in ChEMBL document CHEMBL1138148, “Conformational constraint in oxazolidinone antibacterials. Part 2: Synthesis and structure-activity studies of oxa-, aza-, and thiabicyclo[3.1.0]hexylphenyl oxazolidinones” (2006).
# Columns and labels:
# Assay type in all cases: functional
# [1] = tested on: Moraxella catarrhalis; test: Antibacterial activity against Moraxella catarrhalis BC-3531
# [2] = tested on: Enterococcus faecalis; test: Antibacterial activity against Enterococcus faecalis MGH-2 EF1-1
# [3] = tested on: Streptococcus pneumoniae; test: Antibacterial activity against Streptococcus pneumoniae SVI SP-3
# [4] = tested on: Haemophilus influenzae; test: Antibacterial activity against Haemophilus influenzae HI3542; conditions: HI-3542
# [5] = tested on: Staphylococcus aureus; test: Antibacterial activity against Staphylococcus aureus UC-76 SA-1
# [6] = tested on: Staphylococcus aureus; test: In vivo efficacy in mouse infected with Staphylococcus aureus UC 9213 administered po; conditions: UC 9213, po
SMILES,MIC [1],MIC [2],MIC [3],MIC [4],MIC [5],ED50 [6]
CC(=O)NC[C@H]1CN(c2ccc([C@H]3[C@@H]4CN(C=O)C[C@@H]43)c(F)c2)C(=O)O1,8 µg/mL,2 µg/mL,1 µg/mL,8 µg/mL,2 µg/mL,
N#CCC(=O)NC[C@H]1CN(c2cc(F)c([C@H]3[C@@H]4CS(=O)(=O)C[C@@H]43)c(F)c2)C(=O)O1,8 µg/mL,4 µg/mL,2 µg/mL,4 µg/mL,4 µg/mL,
O=C(CO)NC[C@H]1CN(c2cc(F)c([C@H]3[C@@H]4CS(=O)(=O)C[C@@H]43)c(F)c2)C(=O)O1,8 µg/mL,4 µg/mL,2 µg/mL,8 µg/mL,4 µg/mL,
CC(=O)NC[C@H]1CN(c2cc(F)c([C@H]3[C@@H]4CS(=O)(=O)C[C@@H]43)c(F)c2)C(=O)O1,4 µg/mL,2 µg/mL,1 µg/mL,8 µg/mL,2 µg/mL,3.1 mg/kg
CC(=O)NC[C@H]1CN(c2ccc([C@H]3[C@@H]4CN(C#N)C[C@@H]43)c(F)c2)C(=O)O1,4 µg/mL,1 µg/mL,1 µg/mL,8 µg/mL,2 µg/mL,
CC(=O)NC[C@H]1CN(c2ccc([C@H]3[C@@H]4CN(c5nn[nH]n5)C[C@@H]43)c(F)c2)C(=O)O1,64 µg/mL,32 µg/mL,64 µg/mL,64 µg/mL,64 µg/mL,
CC(=O)NC[C@H]1CN(c2ccc([C@H]3[C@@H]4CN(C(N)=O)C[C@@H]43)c(F)c2)C(=O)O1,8 µg/mL,2 µg/mL,2 µg/mL,8 µg/mL,2 µg/mL,15.3 mg/kg
CC(=O)NC[C@H]1CN(c2ccc([C@H]3[C@@H]4CN(C(=O)CN)C[C@@H]43)c(F)c2)C(=O)O1,16 µg/mL,4 µg/mL,1 µg/mL,16 µg/mL,16 µg/mL,
CC(=O)NC[C@H]1CN(c2ccc([C@H]3[C@@H]4CN(C(=O)CC#N)C[C@@H]43)c(F)c2)C(=O)O1,4 µg/mL,1 µg/mL,1 µg/mL,8 µg/mL,1 µg/mL,
CC(F)(F)C(=O)NC[C@H]1CN(c2ccc([C@H]3[C@@H]4CS(=O)(=O)C[C@@H]43)c(F)c2)C(=O)O1,8 µg/mL,8 µg/mL,2 µg/mL,16 µg/mL,8 µg/mL,
CC(=O)NC[C@H]1CN(c2ccc([C@H]3[C@@H]4CN(C(=N)N)C[C@@H]43)c(F)c2)C(=O)O1,16 µg/mL,64 µg/mL,4 µg/mL,64 µg/mL,64 µg/mL,
O=C(NC[C@H]1CN(c2ccc([C@H]3[C@@H]4CS(=O)(=O)C[C@@H]43)c(F)c2)C(=O)O1)C1CC1,4 µg/mL,4 µg/mL,2 µg/mL,4 µg/mL,4 µg/mL,
CC(=O)NC[C@H]1CN(c2ccc([C@H]3[C@@H]4CN(C(=O)C(C)(C)O)C[C@@H]43)c(F)c2)C(=O)O1,16 µg/mL,4 µg/mL,2 µg/mL,32 µg/mL,8 µg/mL,
COC(=O)N1C[C@@H]2[C@H](C1)[C@H]2c1ccc(N2C[C@H](CNC(C)=O)OC2=O)cc1F,8 µg/mL,4 µg/mL,2 µg/mL,32 µg/mL,4 µg/mL,
CC(=O)NC[C@H]1CN(c2ccc([C@H]3[C@@H]4CN(C(=O)CO)C[C@@H]43)cc2)C(=O)O1,4 µg/mL,4 µg/mL,4 µg/mL,8 µg/mL,4 µg/mL,
CC(=O)NC[C@H]1CN(c2ccc([C@H]3[C@@H]4CS(=O)(=O)C[C@@H]43)c(F)c2)C(=O)O1,8 µg/mL,4 µg/mL,2 µg/mL,8 µg/mL,4 µg/mL,4.2 mg/kg
O=C(CO)NC[C@H]1CN(c2ccc([C@H]3[C@@H]4CS(=O)(=O)C[C@@H]43)c(F)c2)C(=O)O1,8 µg/mL,8 µg/mL,4 µg/mL,8 µg/mL,8 µg/mL,
CC(=O)NC[C@H]1CN(c2ccc([C@H]3[C@@H]4CN(CCO)C[C@@H]43)c(F)c2)C(=O)O1,8 µg/mL,8 µg/mL,0.5 µg/mL,8 µg/mL,4 µg/mL,
C/N=C(\NC#N)N1C[C@@H]2[C@H](C1)[C@H]2c1ccc(N2C[C@H](CNC(C)=O)OC2=O)cc1F,32 µg/mL,4 µg/mL,2 µg/mL,16 µg/mL,4 µg/mL,
CCC(=O)NC[C@H]1CN(c2ccc([C@H]3[C@@H]4CS(=O)(=O)C[C@@H]43)c(F)c2)C(=O)O1,8 µg/mL,2 µg/mL,1 µg/mL,8 µg/mL,4 µg/mL,

SMILES,MIC [1],MIC [2],MIC [3],MIC [4],MIC [5],ED50 [6]
CC(=O)NC[C@H]1CN(c2cc(F)c([C@H]3[C@@H]4CN(C(=O)CO)C[C@@H]43)c(F)c2)C(=O)O1,8 µg/mL,4 µg/mL,2 µg/mL,16 µg/mL,4 µg/mL,
CC(=O)NC[C@H]1CN(c2ccc([C@H]3[C@@H]4CN(C(=N)NC#N)C[C@@H]43)c(F)c2)C(=O)O1,8 µg/mL,2 µg/mL,1 µg/mL,8 µg/mL,1 µg/mL,
CC(F)(F)C(=O)NC[C@H]1CN(c2cc(F)c([C@H]3[C@@H]4CS(=O)(=O)C[C@@H]43)c(F)c2)C(=O)O1,8 µg/mL,2 µg/mL,1 µg/mL,16 µg/mL,4 µg/mL,
CC(=O)NC[C@H]1CN(c2ccc([C@H]3[C@@H]4CS(=O)(=O)C[C@@H]43)cc2)C(=O)O1,8 µg/mL,8 µg/mL,4 µg/mL,16 µg/mL,4 µg/mL,7.2 mg/kg
O=C(NC[C@H]1CN(c2cc(F)c([C@H]3[C@@H]4CS(=O)(=O)C[C@@H]43)c(F)c2)C(=O)O1)C1CC1,4 µg/mL,2 µg/mL,1 µg/mL,8 µg/mL,2 µg/mL,
O=C(NC[C@H]1CN(c2ccc([C@H]3[C@@H]4CS(=O)(=O)C[C@@H]43)c(F)c2)C(=O)O1)C1CCC1,32 µg/mL,8 µg/mL,2 µg/mL,32 µg/mL,8 µg/mL,
CC(=O)NC[C@H]1CN(c2ccc([C@H]3[C@@H]4COC[C@@H]43)cc2)C(=O)O1,8 µg/mL,16 µg/mL,8 µg/mL,32 µg/mL,8 µg/mL,
N#CCC(=O)NC[C@H]1CN(c2ccc([C@H]3[C@@H]4CS(=O)(=O)C[C@@H]43)c(F)c2)C(=O)O1,8 µg/mL,8 µg/mL,4 µg/mL,8 µg/mL,8 µg/mL,
CC(=O)NC[C@H]1CN(c2ccc([C@H]3[C@@H]4CN(CCC#N)C[C@@H]43)c(F)c2)C(=O)O1,8 µg/mL,2 µg/mL,1 µg/mL,16 µg/mL,2 µg/mL,
CC(=O)NC[C@H]1CN(c2ccc([C@H]3[C@@H]4CNC[C@@H]43)c(F)c2)C(=O)O1,8 µg/mL,16 µg/mL,2 µg/mL,32 µg/mL,8 µg/mL,
CC(=O)NC[C@H]1CN(c2ccc([C@H]3[C@@H]4CN(C(=O)C(F)F)C[C@@H]43)c(F)c2)C(=O)O1,8 µg/mL,2 µg/mL,1 µg/mL,16 µg/mL,4 µg/mL,
CC(=O)NC[C@H]1CN(c2cc(F)c([C@H]3[C@@H]4COC[C@@H]43)c(F)c2)C(=O)O1,8 µg/mL,8 µg/mL,4 µg/mL,32 µg/mL,8 µg/mL,
CCC(=O)NC[C@H]1CN(c2cc(F)c([C@H]3[C@@H]4CS(=O)(=O)C[C@@H]43)c(F)c2)C(=O)O1,4 µg/mL,2 µg/mL,1 µg/mL,4 µg/mL,2 µg/mL,
CC(=O)NC[C@H]1CN(c2ccc([C@H]3[C@@H]4CN(C(=O)CO)C[C@@H]43)c(F)c2)C(=O)O1,8 µg/mL,2 µg/mL,2 µg/mL,4 µg/mL,2 µg/mL,2.2 mg/kg
CC(=O)NC[C@H]1CN(c2ccc([C@H]3[C@@H]4CN(CCF)C[C@@H]43)c(F)c2)C(=O)O1,8 µg/mL,4 µg/mL,1 µg/mL,16 µg/mL,4 µg/mL,
CC(=O)NC[C@H]1CN(c2ccc([C@H]3[C@@H]4CN(c5nnn(C)n5)C[C@@H]43)c(F)c2)C(=O)O1,8 µg/mL,2 µg/mL,1 µg/mL,16 µg/mL,2 µg/mL,
CC(=O)NCC(=O)N1C[C@@H]2[C@H](C1)[C@H]2c1ccc(N2C[C@H](CNC(C)=O)OC2=O)cc1F,32 µg/mL,4 µg/mL,4 µg/mL,32 µg/mL,4 µg/mL,
CC(=O)NC[C@H]1CN(c2ccc([C@H]3[C@@H]4COC[C@@H]43)c(F)c2)C(=O)O1,4 µg/mL,4 µg/mL,2 µg/mL,8 µg/mL,4 µg/mL,
CC(=O)NC[C@H]1CN(c2ccc(N3CCOCC3)c(F)c2)C(=O)O1 [LINEZOLID],8 µg/mL,,,16 µg/mL,,
